Data: ChEMBL document CHEMBL1811816, “Asperaculin A, a sesquiterpenoid from a marine-derived fungus, Aspergillus aculeatus” (J Nat Prod, 2011)
Active and inactive are the calls of the source.

Legend:
Format in all cases: functional, cell-based
[1] = tested on: MOLT-3; assay: Cytotoxicity against human MOLT3 cells at 50 ug/mL after 72 hrs by XTT assay
[2] = tested on: A549; assay: Cytotoxicity against human A549 cells at 50 ug/mL after 72 hrs by MTT assay
[3] = tested on: HepG2; assay: Cytotoxicity against human HepG2 cells at 50 ug/mL after 72 hrs by MTT assay
[4] = tested on: HuCC-A1; assay: Cytotoxicity against human HuCCa1 cells at 50 ug/mL after 72 hrs by MTT assay

Measured: Activity

CC1(C)C[C@]2(C)COC(=O)[C@H]3OC(=O)[C@]4(O)CC[C@@H]1C324 (some centres undefined)
inactive: all assays above
